Data as given in the supplement of paper PMC10307832.

How the values were obtained:
Experiment in all cases: relative viability (nuclei count vs DMSO), 5 days (fraction); higher = more cells survive
Elesclomol = compound: CN(NC(=O)CC(=O)NN(C)C(=S)c1ccccc1)C(=S)c1ccccc1 [Elesclomol]
Summary of the method: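 Viability here means nuclei in treated wells divided by nuclei in vehicle wells, reported as the median across plates. Only plates with control CV below 25% and at least one doubling passed. Lung cancer cell lines in 1536-well plates were exposed to five √10-spaced library-drug doses for 5 days and counted from 4× Hoechst images in MetaXpress.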

Elesclomol + Crizotinib = compound: CN(NC(=O)CC(=O)NN(C)C(=S)c1ccccc1)C(=S)c1ccccc1 [Elesclomol] + C[C@@H](Oc1cc(-c2cnn(C3CCNCC3)c2)cnc1N)c1c(Cl)ccc(F)c1Cl [Crizotinib] (partner 1 µM)
Summary of the method: (§1)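 Relative viability was taken as the ratio of nuclei in treated wells to nuclei in vehicle wells. Lung cancer cell lines in 1536-well plates received compounds by pin tool one day after seeding, either one drug alone or a fixed anchor-drug dose plus five library-drug doses (not always all listed) in √10 steps. Nuclei were counted on 4× images after 5 days of treatment, and values are medians of duplicate plates.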

Elesclomol + Alpelisib = compound: CN(NC(=O)CC(=O)NN(C)C(=S)c1ccccc1)C(=S)c1ccccc1 [Elesclomol] + Cc1nc(NC(=O)N2CCC[C@H]2C(N)=O)sc1-c1ccnc(C(C)(C)C(F)(F)F)c1 [Alpelisib] (partner 2 µM)
Summary of the method: as §1

Elesclomol + Dasatinib = compound: CN(NC(=O)CC(=O)NN(C)C(=S)c1ccccc1)C(=S)c1ccccc1 [Elesclomol] + Cc1nc(Nc2ncc(C(=O)Nc3c(C)cccc3Cl)s2)cc(N2CCN(CCO)CC2)n1 [Dasatinib] (partner 0.075 µM)
Summary of the method: as §1

Elesclomol + Olaparib = compound: CN(NC(=O)CC(=O)NN(C)C(=S)c1ccccc1)C(=S)c1ccccc1 [Elesclomol] + O=C(c1cc(Cc2n[nH]c(=O)c3ccccc23)ccc1F)N1CCN(C(=O)C2CC2)CC1 [Olaparib] (partner 8 µM)
Summary of the method: as §1

Cell Line	relative viability (Elesclomol; 0.003162 µM)	relative viability (Elesclomol; 0.01 µM)	relative viability (Elesclomol; 0.03162 µM)	relative viability (Elesclomol; 0.1 µM)	relative viability (Elesclomol + Crizotinib; first compound 0.003162 µM)	relative viability (Elesclomol + Crizotinib; first compound 0.01 µM)	relative viability (Elesclomol + Crizotinib; first compound 0.03162 µM)	relative viability (Elesclomol + Crizotinib; first compound 0.1 µM)	relative viability (Elesclomol + Alpelisib; first compound 0.003162 µM)	relative viability (Elesclomol + Alpelisib; first compound 0.01 µM)	relative viability (Elesclomol + Alpelisib; first compound 0.03162 µM)	relative viability (Elesclomol + Alpelisib; first compound 0.1 µM)	relative viability (Elesclomol + Dasatinib; first compound 0.003162 µM)	relative viability (Elesclomol + Dasatinib; first compound 0.01 µM)	relative viability (Elesclomol + Dasatinib; first compound 0.03162 µM)	relative viability (Elesclomol + Dasatinib; first compound 0.1 µM)	relative viability (Elesclomol + Olaparib; first compound 0.003162 µM)	relative viability (Elesclomol + Olaparib; first compound 0.01 µM)	relative viability (Elesclomol + Olaparib; first compound 0.03162 µM)	relative viability (Elesclomol + Olaparib; first compound 0.1 µM)
HCC-78	0.87	1	0.861	0.926	0.356	0.325	0.326	0.336	0.27	0.354	0.325	0.307	0.28	0.407	0.319	0.34	0.735	0.574	0.641	0.945
HCC-366	1.04	1.08	0.924	0.202	0.566	0.616	0.112	0.0109	0.437	0.491	0.359	0.0118	0.596	0.624	0.542	0.029	0.369	0.31	0.108	0.0162
HCC-827	1.05	1.02	1.02	1	0.965	0.94	0.96	0.675	0.98	1.01	0.975	0.657	0.253	0.217	0.276	0.425	0.58	0.522	0.672	0.475
HOP-62	1.01	0.83	0.89	0.299	0.952	0.916	0.919	0.256	1.05	0.712	0.797	0.113	0.678	0.638	0.458	0.213	0.487	0.191	0.0744	0.08
IA-LM	0.855	0.374	0.0911	0.0299	0.746	0.343	0.0493	0.0241	0.789	0.164	0.076	0.027					0.892	0.526	0.181	0.115
LC-2-ad	0.963	0.568	0.241	0.19	0.423	0.251	0.194	0.238	0.85	0.495	0.111	0.116	0.492	0.196	0.202	0.179	0.722	0.622	0.277	0.197
LCLC-97TM1	0.735	0.844	0.738	0.0887	0.283	0.253	0.319	0.0642	0.216	0.211	0.167	0.104	0.854	0.765	0.798	0.264	0.402	0.295	0.379	0.0862
LCLC-103H	1	0.856	0.993	0.842	0.948	0.937	0.993	1.02	1.17	0.883	1.02	0.955	0.498	0.344	0.533	0.399	0.724	0.737	0.815	0.639
LK-2	0.796	0.715	0.507	0.157	0.224	0.213	0.124	0.106	0.843	0.254	0.137	0.107	0.275	0.367	0.23	0.105	0.65	0.503	0.332	0.0869
LOU-NH91	1.06	0.856	0.798	0.764	0.735	0.706	0.616	0.57	0.717	0.643	0.513	0.498	0.546	0.52	0.428	0.432	0.898	0.825	0.829	0.606
LU99A	0.919	0.811	0.986	0.544	0.545		0.648	0.121	0.479		0.538	0.095	0.569	0.39	0.512	0.185	0.286	0.223	0.247	0.173
LXF-289	1.03	0.956	0.95	0.772	0.811	0.775	0.767	0.588	1.05	0.977	0.979	0.686	0.243	0.176	0.202	0.113	1.11	1.01	0.939	0.544
NCI-H522	1.03	0.877	0.801	0.53									0.842	0.812	0.868	0.454	0.617	0.812	0.618	0.431
NCI-H1395	0.972	0.475	0.279	0.265					0.999	0.571	0.252	0.259	0.387	0.304	0.266	0.22	0.449	0.364	0.254	0.22
NCI-H1650	0.394	0.281	0.16	0.114	0.325	0.221	0.255	0.122					0.21	0.17	0.156	0.154	0.583	0.291	0.145	0.0879
NCI-H1793	0.893	0.635	0.892	0.251					0.759	0.654	0.768	0.164	0.358	0.268	0.373	0.136	0.818	0.692	0.386	0.0938
SW 900	0.871	0.701	0.251	0.0829									0.626	0.41	0.144	0.196	0.774	0.596	0.264	0.0917
